Laboratory results taken from ChEMBL document CHEMBL5550210, “Discovery of Novel α,β-Unsaturated Amide Derivatives as Candidate Antifungals to Overcome Fungal Resistance” (J Med Chem, 2024).
≈ marks a conversion by molar mass, not a printed value. Calls of active or inactive are those of the source. No cut-off for these calls is given here.

Key:
[1] = Metabolic stability in mouse liver microsomes assessed as half life; type: ADME, Microsome
Candida albicans [2] = experiment: Ratio of MFC for fungicidal activity against Candida albicans to MIC for antifungal activity against Candida albicans; type: functional
Candida albicans [3] = experiment: Antifungal activity against fluconazole-resistant Candida albicans 17 assessed as inhibition of fungal growth by CLSI based microdilution method; type: functional
Candida parapsilosis = experiment: Antifungal activity against Candida parapsilosis ATCC 22019 assessed as inhibition of fungal growth by CLSI protocol based microdilution method; type: functional; settings: Lodderomyces parapsilosis
Pichia kudriavzevii = experiment: Antifungal activity against Candida krusei AS 2.1045 assessed as inhibition of fungal growth by CLSI protocol based microdilution method; type: functional
Candida albicans [4] = experiment: Antifungal activity against fluconazole-resistant Candida albicans 904 assessed as downregulation of MDR1 gene expression at 16 ug/ml incubated for 16 hrs by RT-PCR analysis; type: functional, organism-based; settings: dose 16.0 µg/ml
Candida albicans [5] = experiment: Antifungal activity against Candida albicans SC5314 assessed as inhibition of fungal growth by CLSI protocol based microdilution method; type: functional
Candida albicans [6] = experiment: Antifungal activity against fluconazole-resistant Candida albicans 632 assessed as inhibition of fungal growth by CLSI based microdilution method; type: functional
Candida albicans [7] = experiment: Antifungal activity against fluconazole-resistant Candida albicans 904 assessed as downregulation of CDR2 gene expression at 16 ug/ml incubated for 16 hrs by RT-PCR analysis; type: functional, organism-based; settings: dose 16.0 µg/ml
Candida albicans [8] = experiment: Antifungal activity against fluconazole-resistant Candida albicans 904 assessed as downregulation of ALS3 gene expression at 16 ug/ml incubated for 12 hrs by RT-PCR analysis; type: functional, organism-based; settings: dose 16.0 µg/ml
[9] = target: T1, Lanosterol 14-alpha demethylase (Candida albicans (strain SC5314 / ATCC MYA-2876) (Yeast), UniProt P10613); experiment: Inhibition of CYP51 in Candida albicans SC5314 assessed as increase in eburicol level at 0.031 ug/ml incubated for 24 hrs by GC-MS analysis relative to control; settings: at 0.031 µg/mL
Candida albicans [10] = experiment: Antifungal activity against fluconazole-resistant Candida albicans 904 assessed as inhibition of hyphae formation at 16 ug/ml incubated for 4 hrs by inverted microscopic analysis; type: functional, organism-based; settings: dose 16.0 µg/ml
Candida albicans [11] = experiment: Fungicidal activity against Candida albicans assessed as inhibition of fungal growth measured after 48 hrs by CLSI protocol based microdilution method; type: functional
Candida albicans [12] = experiment: Antifungal activity against fluconazole-resistant Candida albicans 904 assessed as downregulation of ERG11 gene expression at 16 ug/ml incubated for 16 hrs by RT-PCR analysis; type: functional, organism-based; settings: dose 16.0 µg/ml
[13] = Half life in mouse plasma measured at 180 mins; type: ADME, cell-free
[14] = target: T2, Voltage-gated inwardly rectifying potassium channel KCNH6 (Homo sapiens, UniProt Q9H252); experiment: Inhibition of hERG2; type: toxicity
T2 sequence (Q9H252 whole entry): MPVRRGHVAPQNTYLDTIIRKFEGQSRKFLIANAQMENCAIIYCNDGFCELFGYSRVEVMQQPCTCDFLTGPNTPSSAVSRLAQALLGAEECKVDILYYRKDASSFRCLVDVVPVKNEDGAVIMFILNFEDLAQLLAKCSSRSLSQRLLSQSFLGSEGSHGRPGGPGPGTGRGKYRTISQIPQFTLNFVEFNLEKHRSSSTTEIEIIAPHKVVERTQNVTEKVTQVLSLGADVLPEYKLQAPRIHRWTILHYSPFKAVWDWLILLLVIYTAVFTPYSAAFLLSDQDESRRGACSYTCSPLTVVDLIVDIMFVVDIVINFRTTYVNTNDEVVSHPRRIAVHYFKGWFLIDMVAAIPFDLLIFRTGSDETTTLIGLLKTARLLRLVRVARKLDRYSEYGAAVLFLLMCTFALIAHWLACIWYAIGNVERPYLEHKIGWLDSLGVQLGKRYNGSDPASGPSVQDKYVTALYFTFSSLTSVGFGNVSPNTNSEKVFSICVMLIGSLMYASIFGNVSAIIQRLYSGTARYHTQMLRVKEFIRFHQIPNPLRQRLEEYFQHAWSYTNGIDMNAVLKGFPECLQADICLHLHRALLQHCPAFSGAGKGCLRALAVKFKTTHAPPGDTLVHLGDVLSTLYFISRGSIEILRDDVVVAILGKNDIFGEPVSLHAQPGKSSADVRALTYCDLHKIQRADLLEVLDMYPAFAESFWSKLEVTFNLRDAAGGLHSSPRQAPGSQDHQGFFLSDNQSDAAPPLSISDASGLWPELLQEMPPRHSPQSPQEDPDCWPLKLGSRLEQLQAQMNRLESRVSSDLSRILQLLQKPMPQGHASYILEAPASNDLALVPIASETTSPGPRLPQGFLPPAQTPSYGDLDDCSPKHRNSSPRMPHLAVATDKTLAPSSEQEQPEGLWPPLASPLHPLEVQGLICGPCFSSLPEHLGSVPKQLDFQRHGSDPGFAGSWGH

[15] = target: Voltage-gated inwardly rectifying potassium channel KCNH2 (Homo sapiens, UniProt Q12809); experiment: Inhibition of hERG1; type: toxicity
[16] = target: T1, Lanosterol 14-alpha demethylase; experiment: Inhibition of CYP51 in Candida albicans SC5314 assessed as increase in obtusifoliol level at 0.031 ug/ml incubated for 24 hrs by GC-MS analysis relative to control; settings: at 0.031 µg/mL
Candida albicans [17] = experiment: Antifungal activity against fluconazole-resistant Candida albicans 904 assessed as downregulation of TEC1 gene expression at 16 ug/ml incubated for 12 hrs by RT-PCR analysis; type: functional, organism-based; settings: dose 16.0 µg/ml
Candida albicans [18] = experiment: Antifungal activity against Candida albicans CPCC400616 assessed as inhibition of hyphae formation at 2 ug/ml incubated for 4 hrs by inverted microscopic analysis; type: functional, organism-based; settings: dose 2.0 µg/ml
Candida albicans [19] = experiment: Antifungal activity against fluconazole-resistant Candida albicans 904 assessed as downregulation of CPH1 gene expression at 16 ug/ml incubated for 12 hrs by RT-PCR analysis; type: functional, organism-based; settings: dose 16.0 µg/ml
Aspergillus fumigatus = experiment: Antifungal activity against Aspergillus fumigatus CGMCC 3.7795 assessed as inhibition of fungal growth by CLSI protocol based microdilution method; type: functional
Candida albicans [20] = experiment: Antifungal activity against fluconazole-resistant Candida albicans 904 assessed as downregulation of CDR1 gene expression at 16 ug/ml incubated for 16 hrs by RT-PCR analysis; type: functional, organism-based; settings: dose 16.0 µg/ml
Candida albicans [21] = experiment: Antifungal activity against fluconazole-resistant Candida albicans 904 assessed as inhibition of fungal biofilm formation incubated for 24 hrs by XTT assay; type: functional, organism-based
[22] = Stability in mouse plasma assessed as parent compound remaining measured at 180 mins; type: ADME, cell-free; settings: read-out: Stability
Candida albicans [23] = experiment: Antifungal activity against fluconazole-resistant Candida albicans 904 assessed as downregulation of EFG1 gene expression at 16 ug/ml incubated for 12 hrs by RT-PCR analysis; type: functional, organism-based; settings: dose 16.0 µg/ml
J774.A1 = experiment: Cytotoxicity against mouse J774.A1 cells assessed as inhibition of cell growth incubated for 72 hrs by MTT assay; type: functional, cell-based; settings: J774.A1, 72 h
Candida albicans [24] = experiment: Antifungal activity against fluconazole-resistant Candida albicans 904 assessed as increase in intracellular ROS production at 32 ug/ml incubated for 4 hrs by DCFH-DA probe based fluorescence spectrophotometric analysis; type: functional, organism-based; settings: dose 32.0 µg/ml
[25] = target: T1, Lanosterol 14-alpha demethylase; experiment: Inhibition of CYP51 in Candida albicans SC5314 assessed as reduction in ergosterol content at 0.031 ug/ml incubated for 24 hrs by GC-MS analysis relative to control; settings: at 0.031 µg/mL

T1 sequence (P10613 whole entry): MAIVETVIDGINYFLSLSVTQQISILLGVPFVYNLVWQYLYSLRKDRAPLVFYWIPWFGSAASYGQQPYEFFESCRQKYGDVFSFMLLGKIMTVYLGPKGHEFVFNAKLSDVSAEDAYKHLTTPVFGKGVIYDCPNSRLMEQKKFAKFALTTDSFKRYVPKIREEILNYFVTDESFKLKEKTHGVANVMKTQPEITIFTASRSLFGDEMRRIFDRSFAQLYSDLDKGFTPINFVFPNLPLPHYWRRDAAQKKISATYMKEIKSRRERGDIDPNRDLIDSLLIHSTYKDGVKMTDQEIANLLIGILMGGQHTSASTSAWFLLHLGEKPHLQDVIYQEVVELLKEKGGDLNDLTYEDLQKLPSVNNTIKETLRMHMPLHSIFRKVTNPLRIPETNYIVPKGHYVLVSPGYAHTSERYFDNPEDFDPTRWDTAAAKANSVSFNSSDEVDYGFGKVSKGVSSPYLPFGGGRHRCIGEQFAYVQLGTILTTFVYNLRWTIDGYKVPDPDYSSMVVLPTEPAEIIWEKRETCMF
Chain of Voltage-gated inwardly rectifying potassium channel KCNH2 (Q12809 whole entry): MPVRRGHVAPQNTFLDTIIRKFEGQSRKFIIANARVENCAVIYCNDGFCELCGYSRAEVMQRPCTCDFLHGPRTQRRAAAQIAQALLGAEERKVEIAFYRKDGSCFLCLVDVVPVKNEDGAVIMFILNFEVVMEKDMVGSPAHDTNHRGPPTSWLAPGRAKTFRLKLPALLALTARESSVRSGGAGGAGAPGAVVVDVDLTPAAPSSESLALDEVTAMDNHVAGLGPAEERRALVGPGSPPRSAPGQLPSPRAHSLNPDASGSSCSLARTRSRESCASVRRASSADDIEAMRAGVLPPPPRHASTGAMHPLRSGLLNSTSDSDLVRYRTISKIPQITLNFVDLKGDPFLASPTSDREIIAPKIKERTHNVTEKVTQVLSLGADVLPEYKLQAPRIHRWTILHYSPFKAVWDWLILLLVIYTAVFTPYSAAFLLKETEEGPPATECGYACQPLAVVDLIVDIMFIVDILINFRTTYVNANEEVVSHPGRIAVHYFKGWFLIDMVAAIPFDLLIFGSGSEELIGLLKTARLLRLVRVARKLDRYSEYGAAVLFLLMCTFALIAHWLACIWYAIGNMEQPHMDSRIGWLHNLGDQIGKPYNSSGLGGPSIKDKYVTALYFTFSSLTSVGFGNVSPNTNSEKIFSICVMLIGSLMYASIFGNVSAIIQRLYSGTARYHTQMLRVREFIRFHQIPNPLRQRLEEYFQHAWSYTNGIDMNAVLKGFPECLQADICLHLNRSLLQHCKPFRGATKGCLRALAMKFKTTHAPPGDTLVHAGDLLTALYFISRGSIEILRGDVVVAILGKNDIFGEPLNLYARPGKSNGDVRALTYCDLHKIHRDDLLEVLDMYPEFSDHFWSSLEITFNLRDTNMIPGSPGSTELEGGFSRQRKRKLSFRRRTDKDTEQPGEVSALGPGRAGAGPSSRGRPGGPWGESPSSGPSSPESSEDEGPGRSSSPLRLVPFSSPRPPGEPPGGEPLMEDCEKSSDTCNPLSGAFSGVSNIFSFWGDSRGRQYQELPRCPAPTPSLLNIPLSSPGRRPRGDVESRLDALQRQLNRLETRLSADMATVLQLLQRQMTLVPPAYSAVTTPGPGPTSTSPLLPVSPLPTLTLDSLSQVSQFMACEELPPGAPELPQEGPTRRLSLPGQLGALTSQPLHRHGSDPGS

Molecule CCCCNC(=O)/C=C/c1ccc(COC(Cn2ccnc2)c2ccc(Cl)cc2Cl)cc1 (stereo not drawn) has a half-life [1] of 1 h, a Ratio (Candida albicans [2]) of 16 and an MIC (Candida albicans [3]) of 4 µg/mL (≈ 8.47 µM). For the same molecule, the MIC (Candida parapsilosis) was 0.06 µg/mL (≈ 0.127 µM), the MIC (Pichia kudriavzevii) was 2 µg/mL (≈ 4.23 µM) and the Activity (Candida albicans [4]) was “Active”. For the same molecule, the MIC (Candida albicans [5]) was 0.015 µg/mL (≈ 0.0318 µM), the MIC (Candida albicans [6]) was 0.25 µg/mL (≈ 0.529 µM) and the Activity (Candida albicans [7]) was “Active”. The Activity (Candida albicans [8]) was “Active”, the “inhibition (INH)” value [9] was “Active” and the Activity (Candida albicans [10]) was “Active”. The MFC (Candida albicans [11]) was 32 µg/mL (≈ 67.7 µM), the Activity (Candida albicans [12]) was “Active” and the half-life [13] was greater than 6 h. The “inhibition (INH)” value [14] was “Active”, the “inhibition (INH)” value [15] was “Not Active” and the “inhibition (INH)” value [16] was “Active”. The Activity (Candida albicans [17]) was “Active”, the Activity (Candida albicans [18]) was “Active” and the Activity (Candida albicans [19]) was “Active”. The MIC (Aspergillus fumigatus) was 0.5 µg/mL (≈ 1.06 µM), the Activity (Candida albicans [20]) was “Active” and the Activity (Candida albicans [21]) was “Dose-Dependent Effect”. The remaining at 3 h [22] was 102%, the Activity (Candida albicans [23]) was “Active” and the IC50 (J774.A1) was 29.4 µM. The Activity (Candida albicans [24]) was “Active” and the “inhibition (INH)” value [25] was 0.67%.
Molecule O=C(/C=C/c1ccc(COC(Cn2ccnc2)c2ccc(Cl)cc2Cl)cc1)Nc1ccc(Cl)cc1Cl (stereo not drawn) has a half-life [1] of 0.493 h, a Ratio (Candida albicans [2]) of 32 and an MIC (Candida albicans [3]) of 0.25 µg/mL (≈ 0.445 µM). For the same molecule, the MIC (Candida parapsilosis) was 0.06 µg/mL (≈ 0.107 µM), the MIC (Pichia kudriavzevii) was 0.5 µg/mL (≈ 0.891 µM) and the Activity (Candida albicans [4]) was “Active”. For the same molecule, the MIC (Candida albicans [5]) was 0.03 µg/mL (≈ 0.0534 µM), the MIC (Candida albicans [6]) was 0.25 µg/mL (≈ 0.445 µM) and the Activity (Candida albicans [7]) was “Active”. For the same molecule, the Activity (Candida albicans [8]) was “Active”, the “inhibition (INH)” value [9] was “Active” and the Activity (Candida albicans [10]) was “Active”. The MFC (Candida albicans [11]) was 32 µg/mL (≈ 57 µM), the Activity (Candida albicans [12]) was “Active” and the half-life [13] was greater than 6 h. The “inhibition (INH)” value [14] was “Active”, the “inhibition (INH)” value [15] was “Active” and the “inhibition (INH)” value [16] was “Active”. The Activity (Candida albicans [17]) was “Active”, the Activity (Candida albicans [18]) was “Active” and the Activity (Candida albicans [19]) was “Active”. The MIC (Aspergillus fumigatus) was 0.5 µg/mL (≈ 0.891 µM), the Activity (Candida albicans [20]) was “Active” and the Activity (Candida albicans [21]) was “Dose-Dependent Effect”. For the same molecule, the remaining at 3 h [22] was 97.8%, the Activity (Candida albicans [23]) was “Active” and the IC50 (J774.A1) was 24.6 µM. The Activity (Candida albicans [24]) was “Active” and the “inhibition (INH)” value [25] was 1.25%.
